The structures appear in SMILES notation.

What all share (assay type): cell-based
The target in one data set is T1, CYP11B1 (Homo sapiens, UniProt P15538).
T1 sequence (P15538 whole entry): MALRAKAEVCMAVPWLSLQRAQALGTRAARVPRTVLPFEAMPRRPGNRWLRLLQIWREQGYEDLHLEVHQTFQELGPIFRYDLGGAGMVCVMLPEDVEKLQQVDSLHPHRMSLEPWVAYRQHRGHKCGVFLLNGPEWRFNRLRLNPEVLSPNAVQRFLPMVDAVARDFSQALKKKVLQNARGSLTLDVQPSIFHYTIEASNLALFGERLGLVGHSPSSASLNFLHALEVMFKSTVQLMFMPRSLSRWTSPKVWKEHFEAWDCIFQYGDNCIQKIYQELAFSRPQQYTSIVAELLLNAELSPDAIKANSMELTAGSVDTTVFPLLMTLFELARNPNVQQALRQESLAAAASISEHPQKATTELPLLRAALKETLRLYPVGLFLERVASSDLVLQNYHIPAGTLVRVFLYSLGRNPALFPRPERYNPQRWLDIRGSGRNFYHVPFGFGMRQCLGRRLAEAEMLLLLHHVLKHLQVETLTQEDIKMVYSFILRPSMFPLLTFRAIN
As to the kind of experiment: (§1) Inhibition of human Cyp11B1 transfected in chinese hamster V79MZ cells using deoxycorticosterone as substrate incubated for 60 mins prior to substrate addition measured after 25 mins by HPLC analysis. Conditions: human, Chinese hamster V79MZ cells transfected with human CYP11B1, probe deoxycorticosterone.

The target in data set [1] is T2, Cytochrome P450 11B2, mitochondrial (Homo sapiens, UniProt P19099).
T2 sequence (P19099 whole entry): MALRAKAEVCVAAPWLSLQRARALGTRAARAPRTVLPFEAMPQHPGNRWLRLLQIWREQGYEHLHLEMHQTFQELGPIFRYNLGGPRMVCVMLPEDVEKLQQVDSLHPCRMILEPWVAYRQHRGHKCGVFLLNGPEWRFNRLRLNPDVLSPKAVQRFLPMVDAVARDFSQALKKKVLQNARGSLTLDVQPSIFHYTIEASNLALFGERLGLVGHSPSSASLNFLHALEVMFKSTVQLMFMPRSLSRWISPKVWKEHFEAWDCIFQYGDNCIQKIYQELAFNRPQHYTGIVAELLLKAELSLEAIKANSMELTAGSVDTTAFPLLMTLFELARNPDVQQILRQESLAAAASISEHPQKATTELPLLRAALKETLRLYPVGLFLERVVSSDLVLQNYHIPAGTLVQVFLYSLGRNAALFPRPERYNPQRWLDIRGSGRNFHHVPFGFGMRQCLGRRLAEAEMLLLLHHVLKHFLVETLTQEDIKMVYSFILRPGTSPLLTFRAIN
Nature of the data set: Inhibition of human Cyp11B2 transfected in chinese hamster V79MZ cells using deoxycorticosterone as substrate incubated for 60 mins prior to substrate addition measured after 50 mins by HPLC analysis.

Data set [2] has as its target T3, Cytochrome P450 11B1, mitochondrial (Homo sapiens, UniProt P15538).
T3 sequence (P15538 whole entry): T1 sequence (P15538 whole entry)
The data set is described as §1.

At CYP11B1, `Cc1nnc2n1-c1cc(Cl)c(-c3cncc4ccccc34)cc1CC2` displayed an IC50 at 25 min above 10000 nM.

Take `Cc1nnc2n1-c1ccc(-c3cncc4ccccc34)cc1CC2`: the IC50 in data set [1] was 5 nM; in data set [2] it was 407 nM.

Regarding `COc1c(C)cncc1-c1cc2c(cc1F)-n1c(C)nnc1CC2`, the IC50 at 25 min at CYP11B1 was above 10000 nM.

Turning to `COC(C)(C)c1cncc(-c2ccc3c(c2)CCc2nnc(C)n2-3)c1`, the IC50 in data set [1] turned out to be 5 nM; in data set [2], 108 nM.

Regarding `Cc1nnc2n1-c1c(Cl)cc(-c3cnccc3C(F)(F)F)cc1CC2`, at CYP11B1, the IC50 at 25 min is above 30000 nM.

What is called IC50 is the concentration that gives 50% inhibition. A higher IC50 goes with weaker potency.
